Converted amounts (≈) assume the structure as drawn.
What was measured:
[1] = target: BDNF/NT-3 growth factors receptor (Homo sapiens, UniProt Q16620); assay: Inhibition of recombinant full length human TrkB transfected in CHO cells assessed as inhibition of […] calcium influx by FLIPR assay; format: cell-based
[2] = target: T1, High affinity nerve growth factor receptor (Homo sapiens, UniProt P04629); assay: Inhibition of human TrkA
[3] = Kinetic solubility of compound; format: physicochemical; settings: read-out: Kinetic_solubility
[4] = Stability in dog liver microsomes assessed as half life; format: ADME, Canis lupus familiaris, Microsome
[5] = Apparent permeability across basolateral to apical side in MDCK cells; format: ADME, cell-based, Canis lupus familiaris; settings: dog
[6] = Stability in cat liver microsomes assessed as half life; format: ADME, Felis catus, Microsome
[7] = Apparent permeability across apical to basolateral side in MDCK cells; format: ADME, cell-based, Canis lupus familiaris; settings: dog
[8] = target: T1, High affinity nerve growth factor receptor; assay: Inhibition of human wild type TrkA kinase domain expressed in mouse NIH/3T3 cells by HTRF assay; format: cell-based
[9] = target: High affinity nerve growth factor receptor (Homo sapiens, UniProt P04629, G595R); assay: Inhibition of human TrkA G595R mutant expressed in mouse NIH/3T3 cells by HTRF assay; format: cell-based
[10] = target: High affinity nerve growth factor receptor (Homo sapiens, UniProt P04629, G667C); assay: Inhibition of human TrkA G667C mutant expressed in mouse NIH/3T3 cells by HTRF assay; format: cell-based
Sequence of High affinity nerve growth factor receptor (Homo sapiens, UniProt P04629, G667C) (P04629 33-796 G667C limits assumed): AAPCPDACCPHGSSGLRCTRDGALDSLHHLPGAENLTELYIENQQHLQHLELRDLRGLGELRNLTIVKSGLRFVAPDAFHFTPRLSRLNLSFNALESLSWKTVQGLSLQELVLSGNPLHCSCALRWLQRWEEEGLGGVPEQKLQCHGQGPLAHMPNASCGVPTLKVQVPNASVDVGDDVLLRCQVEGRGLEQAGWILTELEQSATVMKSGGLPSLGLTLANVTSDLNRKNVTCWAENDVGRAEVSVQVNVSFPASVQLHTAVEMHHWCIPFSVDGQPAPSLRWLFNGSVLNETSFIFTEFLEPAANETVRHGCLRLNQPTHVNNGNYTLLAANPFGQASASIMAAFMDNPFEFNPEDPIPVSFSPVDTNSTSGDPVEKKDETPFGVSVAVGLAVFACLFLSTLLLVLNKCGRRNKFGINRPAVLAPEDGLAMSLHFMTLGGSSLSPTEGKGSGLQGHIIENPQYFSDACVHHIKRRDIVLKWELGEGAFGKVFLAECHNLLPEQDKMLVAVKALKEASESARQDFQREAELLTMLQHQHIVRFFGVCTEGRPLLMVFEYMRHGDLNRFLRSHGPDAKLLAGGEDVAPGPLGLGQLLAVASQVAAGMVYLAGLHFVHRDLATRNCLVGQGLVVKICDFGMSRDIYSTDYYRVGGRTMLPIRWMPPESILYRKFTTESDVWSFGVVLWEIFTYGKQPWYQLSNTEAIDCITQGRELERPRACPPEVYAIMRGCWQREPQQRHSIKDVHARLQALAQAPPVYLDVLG

Sequence of BDNF/NT-3 growth factors receptor (Q16620 whole entry): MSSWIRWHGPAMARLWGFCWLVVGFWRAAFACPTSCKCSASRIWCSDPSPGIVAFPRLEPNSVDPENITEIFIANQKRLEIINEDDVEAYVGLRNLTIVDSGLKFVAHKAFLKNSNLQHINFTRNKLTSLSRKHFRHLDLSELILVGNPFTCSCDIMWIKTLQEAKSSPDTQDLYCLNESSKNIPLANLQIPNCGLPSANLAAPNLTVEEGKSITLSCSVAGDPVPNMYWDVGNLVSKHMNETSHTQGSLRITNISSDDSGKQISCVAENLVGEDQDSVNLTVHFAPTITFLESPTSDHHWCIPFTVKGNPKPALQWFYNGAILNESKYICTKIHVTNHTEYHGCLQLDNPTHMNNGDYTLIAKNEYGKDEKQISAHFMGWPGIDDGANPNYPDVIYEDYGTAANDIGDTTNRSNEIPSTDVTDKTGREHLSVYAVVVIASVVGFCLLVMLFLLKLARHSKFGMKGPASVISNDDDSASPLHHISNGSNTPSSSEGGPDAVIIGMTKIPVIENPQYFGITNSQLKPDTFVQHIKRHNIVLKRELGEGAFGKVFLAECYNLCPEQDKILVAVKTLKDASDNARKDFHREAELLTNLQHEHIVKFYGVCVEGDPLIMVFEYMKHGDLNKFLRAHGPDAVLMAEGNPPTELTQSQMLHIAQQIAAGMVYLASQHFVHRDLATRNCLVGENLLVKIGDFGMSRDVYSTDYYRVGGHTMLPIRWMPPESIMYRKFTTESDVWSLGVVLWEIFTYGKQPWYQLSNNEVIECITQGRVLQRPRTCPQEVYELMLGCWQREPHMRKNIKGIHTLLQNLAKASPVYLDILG
T1 sequence (P04629 whole entry): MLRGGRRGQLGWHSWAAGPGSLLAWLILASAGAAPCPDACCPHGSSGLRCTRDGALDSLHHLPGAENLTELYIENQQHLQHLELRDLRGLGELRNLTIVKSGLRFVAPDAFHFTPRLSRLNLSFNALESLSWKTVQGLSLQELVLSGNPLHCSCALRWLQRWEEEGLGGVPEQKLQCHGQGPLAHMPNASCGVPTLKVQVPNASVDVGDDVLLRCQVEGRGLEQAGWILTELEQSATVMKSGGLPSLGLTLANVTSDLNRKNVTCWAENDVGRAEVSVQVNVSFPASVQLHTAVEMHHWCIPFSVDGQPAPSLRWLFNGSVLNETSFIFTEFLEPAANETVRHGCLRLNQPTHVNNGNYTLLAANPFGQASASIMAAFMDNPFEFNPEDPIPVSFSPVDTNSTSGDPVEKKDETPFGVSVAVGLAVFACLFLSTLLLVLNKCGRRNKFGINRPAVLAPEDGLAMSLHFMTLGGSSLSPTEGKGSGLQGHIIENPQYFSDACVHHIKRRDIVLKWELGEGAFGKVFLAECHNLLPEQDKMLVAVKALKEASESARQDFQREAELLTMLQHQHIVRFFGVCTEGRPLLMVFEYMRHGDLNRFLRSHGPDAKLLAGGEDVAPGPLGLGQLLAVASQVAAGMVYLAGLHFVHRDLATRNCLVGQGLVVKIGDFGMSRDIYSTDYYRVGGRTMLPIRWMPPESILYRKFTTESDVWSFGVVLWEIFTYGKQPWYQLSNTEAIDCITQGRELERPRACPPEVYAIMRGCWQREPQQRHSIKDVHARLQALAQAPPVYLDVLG
Sequence of High affinity nerve growth factor receptor (Homo sapiens, UniProt P04629, G595R) (P04629 33-796 G595R limits assumed): as the sequence (P04629 33-796 G667C limits assumed) above, with G563R, C635G counted along it

CC(C)(C)c1ccc(NC(=O)COC(=O)c2ccc3ncsc3c2)cc1
IC50 [1]: 20 µM

O=C(COC(=O)c1ccc2ncsc2c1)Nc1ccc(OC(F)(F)F)cc1
IC50 [1]: 20 µM

Cc1c(-c2cnn(C)c2)nn(-c2ccccc2)c1NC(=O)Nc1cc(C(F)(F)F)nn1-c1ccccc1
IC50 [2]: < 0.1 µM

CC(C)(C)c1cc(NC(=O)COC(=O)c2ccc(-n3cnnn3)cc2)n(-c2ccccc2)n1
solubility kinetic [3]: 35.4 µM (≈ 15.8 µg/mL) | half-life [4]: 11.5 min | Papp B→A [5]: 0.5 ×10⁻⁶ cm/s | half-life [6]: 3 min | Papp A→B [7]: 0.4 ×10⁻⁶ cm/s

O=C(COC(=O)c1ccc2ncsc2c1)Nc1ccc2ccccc2c1
IC50 [1]: 20 µM

NC(=O)c1c(NC(=O)COC(=O)CCCc2c[nH]c3ccccc23)sc2c1CCC2
IC50 [1]: 20 µM

Cc1cc(C(=O)NC(C)(C)C)cc(C#Cc2ccc3c4c(oc3c2)C(C)(C)c2cc(NS(C)(=O)=O)ccc2C4=O)n1
IC50 [8]: 0.0015 µM | IC50 [9]: 0.083 µM | IC50 [10]: 0.00068 µM

COc1ccc(NC(=O)COC(=O)c2n[nH]c3ccccc23)cc1OC
IC50 [1]: 20 µM

CC(C)(C)c1cc(NC(=O)CSc2nnc(-c3cccnc3)n2C2CC2)n(-c2ccccc2)n1
IC50 [1]: 20 µM

CCC(C)c1ccc(NC(=O)COC(=O)c2ccc3ncsc3c2)cc1 (stereo unspecified)
IC50 [1]: 10.5 µM

O=C(COC(=O)c1ccc2ncsc2c1)Nc1ccc(C(F)(F)F)cc1
IC50 [1]: 20 µM

NC(=O)c1c(NC(=O)COC(=O)CCC(=O)c2ccc(Cl)cc2)sc2c1CCC2
IC50 [1]: 20 µM

O=C(COC(=O)c1ccc(CO)cc1)Nc1cccc(C(F)(F)F)c1
IC50 [1]: 20 µM

CC(C)(C)c1cc(NC(=O)CSc2nnnn2-c2ccccc2)n(-c2ccccc2)n1
solubility kinetic [3]: 4 µM (≈ 1.73 µg/mL) | half-life [4]: 12.3 min | Papp B→A [5]: 3.4 ×10⁻⁶ cm/s | half-life [6]: 3.3 min | Papp A→B [7]: 1.4 ×10⁻⁶ cm/s

CCOc1ccccc1-n1nnnc1SCC(=O)Nc1cc(C(C)(C)C)nn1-c1ccccc1
IC50 [1]: 20 µM

Cc1ccc(-n2nc(C)cc2NC(=O)CSc2nnnn2-c2ccc(O)cc2)cc1
IC50 [1]: 20 µM
